Reference: publication doi:10.1101/2023.03.31.535182v2 (biorxiv, 2023)

System: MsGH13
Test: UV/Vis release of 4-nitrophenolate at […] nm
Format: biochemical, Marinovum sp.
Details: 50 mM citric acid/phosphate, 150 mM NaCl, pH 6.5, 25 °C

- Km: 950 ± 470 µM
SMILES: O=[N+]([O-])c1ccc(O[C@H]2O[C@H](CO)[C@@H](O)[C@H](O)[C@H]2O)cc1 [PNPGlc]
